These results are taken from patent US12649734B2, “Bioavailable protein disulfide isomerase inhibitors” (THE CLEVELAND CLINIC FOUNDATION, priority 2020, dated 2026).

Data set [1] in a line: Liver microsome assay. To be noted: 0.25 mg/mL human liver microsomes. It is filed as in vitro ADME. How it is done:
FIGS. 8A & 8B provide graphs showing the stability of CCF642-34 and restriction of multiple myeloma in a syngeneic mouse model by PDIA1-inhibitor CCF642-34. (A) The stability of CCF642-34 was measured against oxidative metabolism by human liver microsomes. CCF642-34 (20 μM) was incubated with 0.25 mg/mL of human liver microsomes for 5 h. The residual compound at indicated time points was measured by HPLC (Agilent 1260 Infinity II) interfaced with reverse phase C18 column using 280 nm and 245 nm detection wavelength. The standard curve of known concentrations of CCF642-34 was obtained from the area under the peak at two wavelengths, and the remaining CCF642-34 was estimated. Data are representative of two independent experiments. […] The survival of each group was monitored, and Kaplan-Meier survival analysis was performed. […]
Liver microsome assay: 20 μM CCF642 or CCF642-34 were incubated with 1 mM NADPH and 0.25 mg/mL human liver microsomes (Sigma, Cat. No: M0567) at 37° C. […] Supernatant was obtained after centrifugation at 15,000 g for 5 min and the remaining compound in supernatant was analyzed by Agilent 1260 Infinity II HPLC with Ultra-violet (UV) detector using Gemini column, […] particle size 150×2 mm (Phenomenex). […] The relative amount of drug at each time point was determined by using the UV peak detection at wavelength 254 and 282 nm. […]
Background: Liver microsomes are a subcellular fraction often used to study metabolism.

The target in data set [2] is PDIA1 (Homo sapiens, UniProt P07237). Put plainly: PDIA1 activity assay, insulin reduction. The arrangement: His6 (6xHN, pET6xHN-N vector) (N); made in house; host or cells: Escherichia coli BL21 (DE3) NiCo. It is filed as biochemical. To be noted: read-out: inactivation constant, Kinact for PDIA1. On the procedure:
PDI activity: All PDI activity assays were performed using two different substrates, insulin and di-eosin-diglutathione (di-E-GSSG) as described earlier (Vatolin et al., Ibid) with brief modifications. PDIA1 (1 μM) was incubated for 1 h with varying concentrations of PDIA1 inhibitors 642 or 642-34 (0.1, 03, 1, 5, 10, or 20 μM) in 100 mM sodium phosphate pH 7.0, 2 mM EDTA, and 1% DMSO. Bovine insulin (100 μM) and DTT (1 mM) were added to initiate the reaction. Kinetic readings were taken every minute for 2 h at 650 nm absorbance using a BioTek Synergy plate reader (BioTek Instruments, Inc., Winooski, VT, USA). For highly sensitive fluorescence-based assays, di-E-GSSG as a pseudo substrate was utilized to access the activity of PDIA1. Raturi, A.; Mutus, B., Free. Radic. Biol. Med., 43, 62-70 (2007) Known concentrations of recombinant PDIA1 were mixed with 10 mM GSH and incubated at 37° C. for 30 min in 150 mM K2HPO4/KH2PO4 (pH 7.1) buffer solution. PDI inhibitor was added into the mixture and incubated for an additional 30 min at 37° C. […] Synergy H1 plate reader (BioTek, WI, USA) was used for kinetic analysis using excitation at 518 nm, emission at 545 nm, reads of 0.1 sec/well every minute at 25° C. for 1 h. Baseline fluorescence was determined from di-E-GSSG reactions without PDI and GSH. […]

Sequence of PDIA1 (P07237 18-508): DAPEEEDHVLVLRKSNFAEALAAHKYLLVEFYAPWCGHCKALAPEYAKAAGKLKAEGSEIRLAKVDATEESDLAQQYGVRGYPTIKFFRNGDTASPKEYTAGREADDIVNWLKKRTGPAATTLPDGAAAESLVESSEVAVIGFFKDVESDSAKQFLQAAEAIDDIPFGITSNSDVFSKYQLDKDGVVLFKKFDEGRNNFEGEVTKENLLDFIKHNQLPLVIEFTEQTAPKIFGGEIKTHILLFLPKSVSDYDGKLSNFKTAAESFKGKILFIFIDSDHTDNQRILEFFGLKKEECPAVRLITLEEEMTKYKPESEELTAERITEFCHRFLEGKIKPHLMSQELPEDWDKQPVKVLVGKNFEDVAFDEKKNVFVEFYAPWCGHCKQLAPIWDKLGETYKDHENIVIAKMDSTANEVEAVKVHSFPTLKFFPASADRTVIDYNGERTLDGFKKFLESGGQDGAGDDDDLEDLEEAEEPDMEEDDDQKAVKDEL

With `NC(CC1CNc2ccccc21)C(=O)NCCCOc1ccc(N2C(=O)/C(=C/c3ccc([N+](=O)[O-])s3)SC2=S)cc1` (centres unmarked) [CCF642-34], the half-life (as a rule, the time needed for the level to fall by half in the phase considered) at 20 µM in data set [1] is over 5 h. Further, in data set [2], the KI (inactivation) worked out at 100 ± 8.5 nM.
